From ChEMBL document CHEMBL3507680, “University of Dundee, Gates Library screen for HepG2 cell viability” come the findings set out here.

A short description of this data set: Human HepG2 cell viability assay in 384 well format. Conditions: HepG2 cells, read-out: Inhibition. Type of data set: toxicity, cell-based. Also noted: dose 125 nL, time 70.5 hour; concentration not given beside the values.
For the compound `Cc1[nH]c(=O)sc1S(=O)(=O)N1CCCC1C(=O)NCc1ccsc1` (stereo not given), the cytotoxicity at 70.5 h is -4.24%.
The same measure for `Cc1cccc(N2CCC3(CCN(Cc4ccccn4)CC3)CC2)n1`: -9.07%; for `Cc1noc(C)c1CS(=O)(=O)CC(=O)N(C)Cc1cccc(F)c1`: -3.7%.
For the compound `COCCN(Cc1sccc1C)C(=O)C1CCCN(C(N)=O)C1` (stereo not given), the cytotoxicity at 70.5 h is 9.09%.
In the case of `Cc1cccnc1CNCC1(O)CCCN(CC2CCC2)C1=O` (stereo not given), the cytotoxicity at 70.5 h was 2.29%.
On to `Cc1ccc(C)c(NC(=O)c2cc(S(=O)(=O)N3CCSCC3)c[nH]2)c1`, for which the cytotoxicity at 70.5 h is 7.14%.
`CCc1nc(C2CCCN(C(=O)CC3CCOCC3)C2)no1` (stereo not given): the cytotoxicity at 70.5 h is -8.83%.
Regarding `Cc1ccc(CN2CCOC3(CCCN(C(=O)c4ccco4)C3)C2)o1` (stereo not given), the cytotoxicity at 70.5 h is -5.05%.
In the case of `CC(=O)N(C)C1CCN(C(=O)NCC(C)Cc2cccs2)CC1` (stereo not given), the cytotoxicity at 70.5 h was -2.57%.
On to `COc1ccc(-c2cnc(CN3CCCC3Cn3cccn3)o2)cc1` (stereo not given), for which the cytotoxicity at 70.5 h is -7.48%.
The figure for `CCCN1CCc2nc(SCc3ccccc3)[nH]c(=O)c2C1` is 8.44%; for `CS(=O)(=O)Nc1cccc(CNC(=O)CCNC(=O)c2cccs2)c1` it is 23.6%.
In the case of `COc1c(Br)cc(Cl)cc1NCc1c(C)noc1C`, the cytotoxicity at 70.5 h turned out to be 11.5%.
Turning to `O=C(NC1CCc2c(ccc(=O)n2CC2CC2)C1)c1ccsc1` (stereo not given), the cytotoxicity at 70.5 h is -1.91%.
For `CCCNC(=O)CNC(=O)CC1CCCc2cc(OC)ccc21` (stereo not given), the cytotoxicity at 70.5 h was -6.62%.
Regarding `COc1c(CNC2CCCOc3ccc(F)cc32)c(C)nn1C` (stereo not given), the cytotoxicity at 70.5 h was -2.26%.
The same measure for `Cc1ccccc1CNCC(O)c1ccc(OC(C)C)cc1` (stereo not given): -0.135%.
The same measure for `COc1cccc(CN2CCN(c3ccc4nncn4n3)C(C)C2)c1` (stereo not given): 9.6%.
Turning to `CCNc1nc(-c2cccnc2)c(-c2ccnc(NCCO)n2)s1`, the cytotoxicity at 70.5 h was -13.3%.
As to `CCc1noc(CN2CCCC2c2noc(C3CC3)n2)n1` (stereo not given), the cytotoxicity at 70.5 h was 1.8%.
The figure for `CCn1cnnc1CN(C)C(=O)C1CCC(=O)N(CC2CCCCC2)C1` (stereo not given) is -6.42%; for `Cc1cc(C(=O)Nc2nc3c(s2)CN(S(=O)(=O)C2CC2)CC3)c(C)o1` it is 4.31%; for `c1cnn(C2CN(c3nc(-c4ccncc4)nc4c3CCC4)C2)c1` it is -1.27%.
The same measure for `Cn1ncc2c1CCCC2NCc1cccc2c1OCCCO2` (stereo not given): 0.963%; for `Cc1cc(C)nc(CCNC(=O)[C@H]2CNC[C@@H](C(=O)N3CCCC3)C2)n1`: 9.67%; for `CCc1nc(C)sc1CN1CC[C@@](O)(CCOC)[C@H](C)C1`: -5.48%.
As for `Cc1ccc(NC(C)C(=O)NCc2cccs2)cc1C` (stereo not given), the cytotoxicity at 70.5 h came to 18%.
The figure for `CC(C)C(NC(N)=O)C(=O)NCc1ccc(N2CCCC2)nc1` (stereo not given) is -9.75%; for `Cc1ccc(S(=O)(=O)NC(=O)C2(c3ccccc3)CCC2)c(C)c1` it is -10.7%.
The same measure for `Cn1ccnc1COc1ccc(CN2CCC(C(N)=O)CC2)cc1`: -11.1%; for `COCCCNS(=O)(=O)c1cc(Br)sc1C`: -6.02%; for `CC(C)CN1CCN(S(=O)(=O)c2cn(C)cn2)Cc2cccnc21`: -10.6%.
The figure for `Cc1ncccc1C(=O)NCC(C)Oc1ccc(F)cc1` (stereo not given) is 24.4%; for `CN(C)c1cc(N(C)Cc2cc(C(C)(C)C)n[nH]2)ncn1` it is -2.08%; for `CC(C)NC(=O)NC[C@H]1OC[C@@H](NCc2ccc(S(C)(=O)=O)cc2)[C@@H]1O` it is -3.26%.
As to `CCN(C)c1ncnc2c1CCN(C(=O)COC)CC2`, the cytotoxicity at 70.5 h was -10.8%.
The same measure for `Nc1nc2c(c(NCc3cnc4c(c3)CCC4)n1)CCNC2`: -10.4%; for `CN(C)S(=O)(=O)c1ccc(CNc2ccc(Cl)cn2)cc1`: 0.742%.
The figure for `Cc1cc2c(=O)n(CCOCCO)cnc2s1` is -5.77%; for `CC(C)(O)CN1CCN(C(=O)c2cccnc2O)CC1` it is -2.58%.
The figure for `COc1ccc(C)cc1NC(=O)Cn1nc(C)c(C#N)c1N` is -5.55%.
Take `O=C1N(CC2CCCCC2)CCCC1(O)CN1CCc2[nH]ncc2C1` (stereo not given): the cytotoxicity at 70.5 h was -7.48%.
The figure for `COC1(CNC(=O)c2ccc3nsnc3c2)CCSC1` (stereo not given) is -18.3%; for `CSc1c[nH]nc1NS(=O)(=O)c1cc(F)ccc1Cl` it is -0.455%.
The same measure for `CSC1(CNC(=O)NC(C)c2ccc(F)cc2)CCOCC1` (stereo not given): 6.41%; for `COC(=O)c1ccc(Cn2nc(C)cc2C)c(OC)c1`: 2.29%.
Take `CCN1C[C@@H]2[C@@H](OC)CCN(C(=O)c3cc(C)nn3CC)[C@@H]2C1`: the cytotoxicity at 70.5 h turned out to be 8.5%.
The figure for `Cc1cccc(NC(=O)N2CCC3(CC(=O)N(c4ccsc4)C3)C2)c1` (stereo not given) is -5.62%.
Regarding `CCOCCC(=O)N(C)CC1Cc2ccccc2CN1C` (stereo not given), the cytotoxicity at 70.5 h is -0.994%.
The figure for `Cn1cc(-c2cc(C(F)(F)F)nn2CCC#N)cn1` is 11.5%; for `COc1cc(C)ccc1OCCN1CC[C@@]2(O)CCNC[C@H]2C1` it is -4.21%; for `CCOCC(=O)NCC1CCN(Cc2ccsc2)CC1` it is 1.54%.
In the case of `CN1CCN(Cc2cccnc2)C(=O)C12CCN(C1CCOC1)CC2` (stereo not given), the cytotoxicity at 70.5 h was -5.29%.
The same measure for `Cc1cccc(CN2CC3(CCN(C(N)=O)CC3)OCC2=O)n1`: -10.4%.
The same measure for `CCOCCCNC(=O)NCc1c(C)nn(C)c1C`: 22.3%.
As to `COc1cc(CCC(=O)N2CCC(c3cnccn3)CC2)on1`, the cytotoxicity at 70.5 h is -1.25%.
The same measure for `COCC(=O)N1CCCN(Cc2cc(O)c3ccccc3n2)CC1`: -9.45%; for `CNC(=O)c1cc2c(s1)CCN(C(=O)CCC1CCCN(C)C1)C2` (stereo not given): -7.22%.
The figure for `Cc1cnc(C(=O)N2CCCN(c3nc(C)cs3)CC2)cn1` is -7.69%; for `Cc1cnc(C(=O)N2CCC3(CC2)CC(c2ccccc2)C(=O)N3)cn1` (stereo not given) it is 8.04%.
The same measure for `O=S(=O)(CCN1CCc2c(ncn2C2CC2)C1)c1ccccc1`: 16.5%.
Turning to `Cc1cnc(CN2CCN(C(C)c3nc(C)no3)CC2)cn1` (stereo not given), the cytotoxicity at 70.5 h came out at 17.2%.
`Cc1nccn1C1CCCN(C(=O)CCCNc2ncccn2)C1` (stereo not given): the cytotoxicity at 70.5 h was -6.43%.
The figure for `CC(=O)N1CCN(CC(C)(O)c2cccc(C(F)(F)F)c2)CC1` (stereo not given) is -8.81%.
Turning to `CCc1nc(CN(C)C2CCN(CCS(C)(=O)=O)C2)no1` (stereo not given), the cytotoxicity at 70.5 h was 2.72%.
Regarding `CN(Cc1nnc2n1CCC2)S(=O)(=O)c1cc(Br)ccc1Br`, the cytotoxicity at 70.5 h was -13.1%.
For the compound `CC(C)(C)CC(=O)N1CC[C@H]2NC(=O)N(Cc3ccccc3)C(=O)[C@H]21`, the cytotoxicity at 70.5 h is -4.69%.
As for `CCC(NCc1cc[nH]n1)c1nc(C(F)(F)F)cs1` (stereo not given), the cytotoxicity at 70.5 h was -4.23%.
The figure for `CN(C)Cc1nnc(C2CCN(c3nccc(N)n3)CC2)n1C1CC1` is 2.16%; for `Cc1cc(NC(=O)CN2CCN(c3nccs3)C(C)C2)n(C)n1` (stereo not given) it is -7.64%; for `Cn1cnc(S(=O)(=O)NCCCN2CCCCCC2)c1Cl` it is -6.45%.
The same measure for `N#Cc1cccnc1OC1CCN(C(=O)c2cc(C3CC3)on2)CC1`: -6.54%; for `CC(C)OCCCNC(=O)NCc1cccc(-n2ccnc2)c1`: -6.74%.
For `COc1ccc(N2CCCC3(C2)CN(c2cccnc2)CCO3)cc1` (stereo not given), the cytotoxicity at 70.5 h was -9.47%.
Regarding `CC(=O)N1CCN(C(C)C)CC(COc2ccccc2)C1` (stereo not given), the cytotoxicity at 70.5 h was -6.04%.
The figure for `CCc1cc(N(C)CCc2noc(C)n2)nc(N2CCOCC2)n1` is -7.76%.
The same measure for `Cc1ccc(CNC(=O)NCCCn2nc3ccccn3c2=O)s1`: 30.2%.
The figure for `CN(C)CC1(O)CCN(C(=O)c2cnc(-c3cccnc3)nc2)C1` (stereo not given) is 3.5%; for `Cc1ccc(-c2nc(CC(=O)N3CCCC(NC(=O)C(C)C)C3)cs2)o1` (stereo not given) it is -4.05%.
`CC(C)NS(=O)(=O)c1cc(C(=O)O)cc(-c2ccccc2CO)c1`: the cytotoxicity at 70.5 h was -3.6%.
For the compound `Fc1cc(CNc2nncs2)ccc1Cl`, the cytotoxicity at 70.5 h is -2.31%.
The same measure for `Cc1nc(NCc2noc(C3CCCO3)n2)c2sccc2n1` (stereo not given): 31.3%.
Consider `Cc1cc(=O)n(C)cc1NC(=O)CC1CCC1`, for which the cytotoxicity at 70.5 h was -2.84%.
The figure for `CNC(=O)[C@@H]1C[C@H](n2cc(-c3ccc(Cl)cc3)nn2)CN1` is -3.41%.
The same measure for `Cc1cc(C)n(CC2CCCN2Cc2cscn2)n1` (stereo not given): 5.49%.
Consider `COCCN1CCc2ccc(=O)n(Cc3csc(C)n3)c2CC1`, for which the cytotoxicity at 70.5 h was -6.35%.
The same measure for `Cc1nnc([C@@]23CCO[C@@H]2CCN(S(=O)(=O)c2cccnc2)C3)o1`: -5.15%.
The same measure for `OCCCNc1nc(O)c2c(n1)-c1ccccc1CC21CCCCC1`: -9.73%; for `CCOc1ccc(CNCC(O)c2ccccc2)cc1Cl` (stereo not given): -4.88%; for `CNC(=O)NCCc1csc2ccccc12`: -0.00639%.
As to `CCOCCNC(=O)Nc1cccc(-c2nccn2C)c1`, the cytotoxicity at 70.5 h is -10%.
The figure for `COc1ccc(CNCc2ccnc(N3CCCC3)c2)c(OC)c1` is -1.69%; for `COC(CNC(=O)c1cn(C)nn1)c1ccc(C)s1` (stereo not given) it is -6.13%; for `Cc1ccc2c(c1)c(CNC(=O)C1CCN(CC(N)=O)CC1)nn2C` it is -2.32%.
As for `Cn1cc(CCCNC(=O)NCC(O)c2ccsc2)cn1` (stereo not given), the cytotoxicity at 70.5 h was -2.64%.
In the case of `COc1cc(C(C)=O)ccc1OCC(=O)N(C)Cc1cnn(C)c1`, the cytotoxicity at 70.5 h is -7.56%.
Consider `O=C(c1ccc(S(=O)(=O)N2CCNCC2)cc1)N1CCCC(O)C1` (stereo not given), for which the cytotoxicity at 70.5 h was -16.1%.
`O=S(=O)(C1CC1)N1CCC[C@]2(C[C@@H](Oc3ccccn3)CO2)C1`: the cytotoxicity at 70.5 h was 14.1%.
`CC(C)c1nccc(CN2CCC(O)(CN3CCCCC3)C2)n1` (stereo not given): the cytotoxicity at 70.5 h is -4.46%.
Take `Cc1ccc(C(=O)N2CCCC2c2nnc3n2CCCCC3)o1` (stereo not given): the cytotoxicity at 70.5 h was -7.2%.
